The test system of series [1] is CXCR4-expressing Chem_1 cells. As to the kind of experiment: Determination of internalization, dual tracer with 125I-Fc-131. As to conditions: for Cell-bound [%] / Internalized [%]: of total cellular activity; for Internalization [% Fc-131] 2 h: 177Lu-labeled. It is filed as cell-based. As for the experimental part:
CXCR4-expressing Chem_1 cells were grown in DMEM-F12 medium supplemented with 10 vol % FBS, 1 vol % NEA, 1 vol % PenStrep and 1 vol % HEPES (1.00 M). Cells were maintained in a 5% CO2 atmosphere at 37° C.
For in vitro experiments, cells were harvested by removal of the medium and incubation of the cells with trypsine/EDTA (0.05%/0.02%; w/v) for 30 in at 37° C.
Each well (n=3 for every time point) was either treated with 25 μL DMEM-F12 (+5 wt % BSA) or 25 μL of an AMD3100 stock (1 mM in H2O) for blockage of the receptors.
The experiment was stopped by placing the well-plate on ice and removing the supernatant. The cells were washed with 250 μL cold HBSS and the both fractions for each well combined, comprising the amount of unbound radioligand.
The supernatant was removed, the cells washed with cold HBSS and the respective fractions combined to obtain the amount of surface-bound radioligand.
The cells were then incubated with 300 μL NaOH (1.00 M in H2O) for at least 30 at r.t. before the supernatant was removed. The well was washed with another 300 μL NaOH and the fractions combined that contain the amount of internalized radioligand.
The three different fractions were subjected to activity measurement in the γ-counter, measuring the activity of the radionuclide used for the labeling of the peptide under investigation first. […] Data was corrected for non-specific internalization and referred to the specific internalization of the standard ligand

A short description of series [2]: Octanol/PBS partition coefficient (logD7.4). It is filed as physicochemical. As to conditions: n-octanol/PBS pH 7.4, radiolabeled compound. As for the experimental part: The tubes were vortexed at maximum speed for 3 min to ensure equilibrium before centrifugation at 15.000×g for 5 min on a Biofuge 15 from Heraeus Holding GmbH (Osterode, Germany). An aliquot of 100 μL of each fraction was measured in the γ-counter and the log D7.4 calculated as follows: […]

The record followed here is US20250288704A1, “CXCR4-LIGANDS FOR DIAGNOSTIC AND THERAPEUTIC USE AND PRECURSORS THEREOF” (priority 2021, published 2025).

Starred links: 1 amine or outer side, 2 acyl side, 3 side chain; linkers in the order of their positions; H or OH if unused. Positions of bridges follow the written chain, without caps; N, C: chain ends. Non-standard residues stand in square brackets, D forms with d. Residues, ends and D or L forms follow the SMILES beside them. Groups on a side chain read outwards from the residue. Chains are numbered I, II in the order given. *: point of attachment. X7 = O=C(O)CN1CCN(CC(=O)O)CCN([C@H](CCC(=O)*)C(=O)O)CCN(CC(=O)O)CC1; Benzoyl(4-SiFtBu2) = CC(C)(C)[Si](F)(c1ccc(C(=O)*)cc1)C(C)(C)C; DOTA = O=C(O)CN1CCN(CC(=O)O)CCN(CC(=O)*)CCN(CC(=O)O)CC1; d(γGlu) = O=C(O)[C@@H](CCC(=O)[*:2])N[*:1]; dTyr(3-I) = N[C@H](Cc1ccc(O)c(I)c1)C(=O)O; 2Nal = N[C@@H](Cc1ccc2ccccc2c1)C(=O)O; dCit = NC(=O)NCCC[C@@H](N)C(=O)O; dNMeOrn = CN[C@H](CCCN)C(=O)O; 4Abz = Nc1ccc(C(=O)O)cc1; dDap = NC[C@@H](N)C(=O)O; CO = O=C([*:1])[*:2]

`C[C@@H](NC(=O)[C@@H](CCCNC(=N)N)NC(=O)[C@@H](CN)NC(=O)CN1CCN(CC(=O)O)CCN(CC(=O)O)CCN(CC(=O)O)CC1)C(=O)Nc1ccc(C(=O)NCCC[C@@H]2C(=O)N[C@@H](CCCNC(=N)N)C(=O)N[C@@H](Cc3ccc4ccccc4c3)C(=O)NCC(=O)N[C@H](Cc3ccc(O)cc3)C(=O)N2C)cc1` [CXCR4-DOTA-3 [Lu]] (cyclo([dY][dNMeOrn]([4Abz-dA-dR-dDap-DOTA])R[2Nal]G)): the “Internalized in relation to 125I-Fc-131 [%]” value (from here on “Internalized in relation … [%]”) in series [1] (15 min) came out at 180 ± 32.6%; in series [1] (30 min) it was 259 ± 23.0%; in series [1] (60 min), 289 ± 22.4%; in series [1] (120 min), 366 ± 69.5%. The “Cell-bound [%]” value in series [1] (15 min) turned out to be 6.46 ± 1.07%; in series [1] (30 min), 9.88 ± 0.54%; in series [1] (60 min), 13.4 ± 0.84%; in series [1] (120 min), 17.1 ± 2.69%. In addition, the “Internalized [%]” value came out at 15.2 ± 0.99% in series [1] (15 min), 22.2 ± 0.78% in series [1] (30 min), 33.4 ± 0.87% in series [1] (60 min) and 38.4 ± 1.78% in series [1] (120 min). In series [1], the “Internalization [% Fc-131] 2 h” value stood at 366 % Fc-131. For the same molecule, the logD7.4 in series [2] is reported as −3.35 ± 0.19 (6).

Turning to `C[C@@H](NC(=O)[C@@H](CCCNC(=N)N)NC(=O)[C@@H](CN)NC(=O)CN1CCN(CC(=O)O)CCN(CC(=O)O)CCN(CC(=O)O)CC1)C(=O)Nc1ccc(C(=O)NCCC[C@@H]2C(=O)N[C@@H](CCCNC(=N)N)C(=O)N[C@@H](Cc3ccc4ccccc4c3)C(=O)NCC(=O)N[C@H](Cc3ccc(O)c(I)c3)C(=O)N2C)cc1` [CXCR4-DOTA-4 [Lu]] (cyclo([dTyr(3-I)][dNMeOrn]([4Abz-dA-dR-dDap-DOTA])R[2Nal]G)), the “Internalized in relation … [%]” value in series [1] (15 min) is 381 ± 16.2%; in series [1] (30 min), 588 ± 34.1%; in series [1] (60 min), 685 ± 50.1%; in series [1] (120 min), 675 ± 47.4%. Besides, the “Cell-bound [%]” value is listed as 16.0 ± 0.58% in series [1] (15 min), 24.6 ± 1.38% in series [1] (30 min), 32.4 ± 0.60% in series [1] (60 min) and 37.2 ± 2.16% in series [1] (120 min). Besides, the “Internalized [%]” value in series [1] (15 min) is 20.7 ± 0.59%; in series [1] (30 min), 30.6 ± 1.56%; in series [1] (60 min), 39.3 ± 0.52%; in series [1] (120 min), 53.23 ± 1.06%. Also, in series [1], the “Internalization [% Fc-131] 2 h” value is 675 % Fc-131. In addition, the logD7.4 in series [2] is given as −2.89 ± 0.10 (6).

Take `C[C@@H](NC(=O)[C@@H](CCCNC(N)=O)NC(=O)[C@@H](CN)NC(=O)CN1CCN(CC(=O)O)CCN(CC(=O)O)CCN(CC(=O)O)CC1)C(=O)Nc1ccc(C(=O)NCCC[C@@H]2C(=O)N[C@@H](CCCNC(=N)N)C(=O)N[C@@H](Cc3ccc4ccccc4c3)C(=O)NCC(=O)N[C@H](Cc3ccc(O)cc3)C(=O)N2C)cc1` [CXCR4-DOTA-5 [Lu]] (cyclo([dY][dNMeOrn]([4Abz-dA-dCit-dDap-DOTA])R[2Nal]G)): the “Internalized in relation … [%]” value in series [1] (15 min) was 97.3 ± 8.78%; in series [1] (30 min), 151 ± 4.51%; in series [1] (60 min), 151 ± 15.9%; in series [1] (120 min), 190 ± 13.0%. Further, the “Cell-bound [%]” value in series [1] (15 min) is 3.47 ± 0.46%; in series [1] (30 min), 4.66 ± 0.45%; in series [1] (60 min), 5.21 ± 0.48%; in series [1] (120 min), 3.94 ± 0.45%. Moreover, the “Internalized [%]” value in series [1] (15 min) is reported as 3.52 ± 0.31%; in series [1] (30 min), 5.80 ± 0.14%; in series [1] (60 min), 6.94 ± 0.59%; in series [1] (120 min) it was 9.65 ± 0.16%. The “Internalization [% Fc-131] 2 h” value in series [1] came out at 190 % Fc-131. In series [2], the logD7.4 is −3.58 ± 0.08 (8).

In the case of `C[C@@H](NC(=O)[C@@H](CCCNC(=N)N)NC(=O)[C@@H](CNC(=O)c1ccc([Si](F)(C(C)(C)C)C(C)(C)C)cc1)NC(=O)CC[C@H](C(=O)O)N1CCN(CC(=O)O)CCN(CC(=O)O)CCN(CC(=O)O)CC1)C(=O)Nc1ccc(C(=O)NCCC[C@@H]2C(=O)N[C@@H](CCCNC(=N)N)C(=O)N[C@@H](Cc3ccc4ccccc4c3)C(=O)NCC(=O)N[C@H](Cc3ccc(O)cc3)C(=O)N2C)cc1` [CXCR4-SiFA-1 [Ga]], the logD7.4 in series [2] is 0.66 ± 0.01 (8).

Consider `C[C@@H](NC(=O)[C@@H](CCCNC(=N)N)NC(=O)[C@@H](CNC(=O)c1ccc([Si](F)(C(C)(C)C)C(C)(C)C)cc1)NC(=O)CC[C@H](C(=O)O)N1CCN(CC(=O)O)CCN(CC(=O)O)CCN(CC(=O)O)CC1)C(=O)Nc1ccc(C(=O)NCCC[C@@H]2C(=O)N[C@@H](CCCNC(=N)N)C(=O)N[C@@H](Cc3ccc4ccccc4c3)C(=O)NCC(=O)N[C@H](Cc3ccc(O)cc3)C(=O)N2C)cc1` [CXCR4-SiFA-1 [Lu]], for which the logD7.4 in series [2] is recorded as 1.41 ± 0.04 (8).

Consider `C[C@@H](NC(=O)[C@@H](CCCNC(=N)N)NC(=O)[C@@H](Cc1c[nH]cn1)NC(=O)[C@@H](CNC(=O)c1ccc([Si](F)(C(C)(C)C)C(C)(C)C)cc1)NC(=O)CC[C@H](C(=O)O)N1CCN(CC(=O)O)CCN(CC(=O)O)CCN(CC(=O)O)CC1)C(=O)Nc1ccc(C(=O)NCCC[C@@H]2C(=O)N[C@@H](CCCNC(=N)N)C(=O)N[C@@H](Cc3ccc4ccccc4c3)C(=O)NCC(=O)N[C@H](Cc3ccc(O)cc3)C(=O)N2C)cc1` [CXCR4-SiFA-2 [Ga]], for which, in series [1] (30 min), the “Internalized in relation … [%]” value is on record as 500 ± 23.1%, the “Cell-bound [%]” value worked out at 0.08 ± 0.23% and the “Internalized [%]” value is listed as 12.5 ± 0.46%. For the same molecule, in series [1] (90 min), the “Internalization [% Fc-131]” value was determined as 562 % Fc-131, the “Internalized in relation … [%]” value was 562 ± 33.0%, the “Cell-bound [%]” value was 0.43 ± 0.26% and the “Internalized [%]” value is given as 16.5 ± 0.94%. Also, in series [2], the logD7.4 is listed as 0.39 ± 0.07 (8).

For the molecule `C[C@@H](NC(=O)[C@@H](CCCNC(=N)N)NC(=O)[C@@H](Cc1c[nH]cn1)NC(=O)[C@@H](CNC(=O)c1ccc([Si](F)(C(C)(C)C)C(C)(C)C)cc1)NC(=O)CC[C@H](C(=O)O)N1CCN(CC(=O)O)CCN(CC(=O)O)CCN(CC(=O)O)CC1)C(=O)Nc1ccc(C(=O)NCCC[C@@H]2C(=O)N[C@@H](CCCNC(=N)N)C(=O)N[C@@H](Cc3ccc4ccccc4c3)C(=O)NCC(=O)N[C@H](Cc3ccc(O)cc3)C(=O)N2C)cc1` [CXCR4-SiFA-2 [Lu]], in series [2], the logD7.4 is listed as 0.80 ± 0.04 (8).

`C[C@@H](NC(=O)[C@@H](CCCNC(=N)N)NC(=O)[C@@H](CN)NC(=O)[C@@H](CNC(=O)c1ccc([Si](F)(C(C)(C)C)C(C)(C)C)cc1)NC(=O)[C@@H](CCCCNC(=O)CC[C@H](C(=O)O)N1CCN(CC(=O)O)CCN(CC(=O)O)CCN(CC(=O)O)CC1)NC(=O)CC[C@H](C(=O)O)N1CCN(CC(=O)O)CCN(CC(=O)O)CCN(CC(=O)O)CC1)C(=O)Nc1ccc(C(=O)NCCC[C@@H]2C(=O)N[C@@H](CCCNC(=N)N)C(=O)N[C@@H](Cc3ccc4ccccc4c3)C(=O)NCC(=O)N[C@H](Cc3ccc(O)cc3)C(=O)N2C)cc1` [CXCR4-SiFA-3 [Ga]] (I: X7-[dK](X7)[dDap](Benzoyl(4-SiFtBu2))[dDap][dR][dA][4Abz] / II: cyclo([dY][dNMeOrn]R[2Nal]G); amide I:C-II:2): the logD7.4 in series [2] is recorded as −1.65 ± 0.09 (8).

In the case of `C[C@@H](NC(=O)[C@@H](CCCNC(=N)N)NC(=O)[C@@H](CN)NC(=O)[C@@H](CNC(=O)CC[C@H](C(=O)O)N1CCN(CC(=O)O)CCN(CC(=O)O)CCN(CC(=O)O)CC1)NC(=O)[C@@H](CNC(=O)c1ccc([Si](F)(C(C)(C)C)C(C)(C)C)cc1)NC(=O)CC[C@@H](NC(=O)N[C@H](CCC(=O)O)C(=O)O)C(=O)O)C(=O)Nc1ccc(C(=O)NCCC[C@@H]2C(=O)N[C@@H](CCCNC(=N)N)C(=O)N[C@@H](Cc3ccc4ccccc4c3)C(=O)NCC(=O)N[C@H](Cc3ccc(O)cc3)C(=O)N2C)cc1` [CXCR4-SiFA-4 [Ga]] (I: {dE-CO-d(γGlu)}-[dDap](Benzoyl(4-SiFtBu2))[dDap](X7)[dDap][dR][dA][4Abz] / II: cyclo([dY][dNMeOrn]R[2Nal]G); amide I:C-II:2), in series [1] (30 min), the “Internalized in relation … [%]” value is 56.6 ± 8.36%, the “Cell-bound [%]” value is on record as 0.10 ± 0.15% and the “Internalized [%]” value worked out at 1.36 ± 0.18%. In series [1] (90 min), the “Internalization [% Fc-131]” value is on record as 58 % Fc-131, the “Internalized in relation … [%]” value is listed as 57.7 ± 5.43%, the “Cell-bound [%]” value is 0.37 ± 0.20% and the “Internalized [%]” value is given as 1.80 ± 0.15%. The logD7.4 in series [2] is reported as −1.92 ± 0.06 (8).
